Assay results reported in patent US8557783B2, “Phosphotetrahydropyran compounds for the treatment of wounds and fibrotic disorders” (Pharmaxis Pty Limited, priority 2009, dated 2013).

Tests used:
[1] = biological target: T1, Cation-Independent Mannose 6-Phosphate Receptor (sCI-MPR) (Bos taurus, UniProt P08169); assay: Antagonism of mannose 6-phosphate binding to the CI-M6P receptor (SPR, Biacore); design: species or system fetal calf; details: mean; SPR at 25° C., sCI-MPR binding to immobilized human β-glucuronidase
T1 construct: Samples of purified sCI-MPR purified from fetal calf serum; from tissue; host or cells: fetal calf serum
T1 sequence (P08169 45-2313 limits assumed): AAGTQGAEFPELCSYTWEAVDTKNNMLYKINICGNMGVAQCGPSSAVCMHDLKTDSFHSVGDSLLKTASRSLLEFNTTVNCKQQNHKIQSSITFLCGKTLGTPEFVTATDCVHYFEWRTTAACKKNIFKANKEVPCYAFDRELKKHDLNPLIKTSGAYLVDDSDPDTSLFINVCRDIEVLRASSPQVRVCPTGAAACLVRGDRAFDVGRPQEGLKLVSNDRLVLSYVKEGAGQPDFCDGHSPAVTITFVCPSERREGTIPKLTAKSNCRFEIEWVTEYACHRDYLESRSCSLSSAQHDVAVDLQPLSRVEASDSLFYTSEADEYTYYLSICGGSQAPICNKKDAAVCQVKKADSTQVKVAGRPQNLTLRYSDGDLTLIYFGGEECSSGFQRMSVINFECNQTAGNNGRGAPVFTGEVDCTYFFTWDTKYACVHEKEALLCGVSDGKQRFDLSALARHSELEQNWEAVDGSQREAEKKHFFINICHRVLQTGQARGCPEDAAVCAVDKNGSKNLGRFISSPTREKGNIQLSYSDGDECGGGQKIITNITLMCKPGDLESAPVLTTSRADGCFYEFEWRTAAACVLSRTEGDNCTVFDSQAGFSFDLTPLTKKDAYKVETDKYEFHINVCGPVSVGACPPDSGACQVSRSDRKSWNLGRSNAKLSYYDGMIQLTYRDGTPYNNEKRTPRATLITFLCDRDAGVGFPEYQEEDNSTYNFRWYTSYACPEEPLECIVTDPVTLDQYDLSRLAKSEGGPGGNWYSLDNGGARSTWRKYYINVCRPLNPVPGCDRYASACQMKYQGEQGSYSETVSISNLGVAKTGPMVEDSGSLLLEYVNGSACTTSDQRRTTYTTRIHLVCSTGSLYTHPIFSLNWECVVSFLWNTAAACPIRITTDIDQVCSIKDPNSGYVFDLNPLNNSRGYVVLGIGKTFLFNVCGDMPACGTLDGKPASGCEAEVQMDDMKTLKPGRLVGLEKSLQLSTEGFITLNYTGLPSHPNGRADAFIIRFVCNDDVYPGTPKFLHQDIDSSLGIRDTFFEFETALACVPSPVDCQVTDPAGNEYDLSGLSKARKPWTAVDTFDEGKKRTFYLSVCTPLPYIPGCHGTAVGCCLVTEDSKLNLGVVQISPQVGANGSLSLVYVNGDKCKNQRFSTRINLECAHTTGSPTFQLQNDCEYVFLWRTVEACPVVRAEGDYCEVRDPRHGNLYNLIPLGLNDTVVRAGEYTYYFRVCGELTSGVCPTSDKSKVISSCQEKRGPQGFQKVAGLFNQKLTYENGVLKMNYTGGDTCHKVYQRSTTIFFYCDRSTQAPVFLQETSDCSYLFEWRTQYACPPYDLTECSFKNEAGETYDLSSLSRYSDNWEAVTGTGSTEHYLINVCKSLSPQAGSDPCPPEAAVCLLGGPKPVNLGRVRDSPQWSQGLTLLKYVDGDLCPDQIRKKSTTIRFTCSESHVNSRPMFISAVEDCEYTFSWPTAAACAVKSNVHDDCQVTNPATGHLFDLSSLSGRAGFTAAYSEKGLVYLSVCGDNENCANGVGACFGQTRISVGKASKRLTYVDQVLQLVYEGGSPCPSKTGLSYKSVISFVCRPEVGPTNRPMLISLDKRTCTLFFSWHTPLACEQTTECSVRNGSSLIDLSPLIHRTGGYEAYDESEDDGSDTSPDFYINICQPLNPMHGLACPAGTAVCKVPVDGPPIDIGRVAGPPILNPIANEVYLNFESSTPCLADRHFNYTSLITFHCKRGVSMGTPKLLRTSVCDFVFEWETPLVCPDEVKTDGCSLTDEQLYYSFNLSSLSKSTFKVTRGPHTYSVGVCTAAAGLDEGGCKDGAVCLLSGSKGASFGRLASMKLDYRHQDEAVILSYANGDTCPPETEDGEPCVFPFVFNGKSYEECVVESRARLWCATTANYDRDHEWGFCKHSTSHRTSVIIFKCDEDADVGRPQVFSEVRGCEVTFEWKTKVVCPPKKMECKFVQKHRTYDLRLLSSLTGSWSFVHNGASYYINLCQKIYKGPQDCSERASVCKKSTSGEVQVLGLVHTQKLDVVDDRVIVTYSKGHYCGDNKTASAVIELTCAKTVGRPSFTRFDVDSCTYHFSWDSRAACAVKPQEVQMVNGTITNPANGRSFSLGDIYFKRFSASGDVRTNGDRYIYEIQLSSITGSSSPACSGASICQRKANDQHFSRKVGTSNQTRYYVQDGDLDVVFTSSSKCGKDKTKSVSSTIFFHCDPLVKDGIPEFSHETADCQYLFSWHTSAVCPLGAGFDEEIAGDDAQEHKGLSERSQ
Protocol: All surface plasmon resonance (SPR) measurements were performed at 25° C. using a Biacore 3000 instrument (BIAcore, Piscataway, N.J.). CM5 research grade sensor chips, surfactant P20 and amine coupling kits were also obtained from BIAcore. Purified human β-glucuronidase was immobilized on CM5 sensor chips following activation of the surface using 1-ethyl-3-(3-dimethylaminopropyl)carbodiimide and N-hydroxysuccinimide as recommended by the manufacturer. Briefly, the proteins were injected onto the activated dextran surface at a concentration of 10-20 μg/mL in 10 mM sodium acetate buffer, pH 4.5 using 10 mM HEPES pH 7.5, 150 mM NaCl and 0.005% (v/v) P20 as the running buffer. After coupling, unreacted N-hydroxysuccinimide ester groups were blocked with ethanolamine. The reference surface was treated in the same way except that protein was omitted. […] The response at equilibrium for each concentration of protein was determined by averaging the response over a 10 sec period within the steady state region of the sensorgram using the BIAevaluation software package (version 4.0.1). […]

[2] = system: LPS-induced lung inflammation, C57BI/6 mice; assay: Acute LPS-induced lung inflammation in the mouse; assay type: in vivo; details: for total number of inflammatory cells in BAL fluid versus LPS control group: 15 min prior to LPS, 3 hours after LPS
Protocol: Age-matched germ-free male C57BI/6 mice (25.30±0.39 g; 6-7 week-old) were transiently anaesthetized with a mixture of isoflurane and oxygen. The vehicle-treated group received intravenous injection (iv) of saline 15 min prior to intra-tracheal instillation (i.t.) of lipopolysaccharide (LPS, 3 mg/kg). Another set of animals received i.v. injection of dexamethasone at 1 mg/kg or 2.5 mg/kg 1 hour prior to LPS. The phosphotetrahydropyran test compound was administered to the animals at 5, 15 and 30 mg/kg (iv) 15 min prior to LPS instillation. A separate group of mice was used as sham (saline/PBS) and was treated with i.v. injection of saline and i.t. injection of PBS (phosphate buffered saline).
Three hours after the LPS administration, animals were anaesthetized with urethane (25%, […] body weight). A blood sample was collected by cardiac puncture (≅1 mL) and the animals were sacrificed by cervical dislocation. The trachea was cannulated and the lungs were lavaged with 2 mL of PBS containing EDTA (1 mM). The lavaged fluid was harvested by gentle injections and aspirations four times with 0.5 mL each, and centrifuged. The total cell count was determined on a fresh fluid specimen with Turk solution using a Neubauer chamber. Differential cell counts were determined using Cytospin technique. Aliquots of the bronchoalveolar lavage (BAL) supernatants were stored without further treatment at −80° C.
Slices of each pulmonary lobe were immediately removed from the animal, weighed and either frozen in liquid nitrogen for myeloperoxidase (MPO) assay or placed in the oven for lung oedema evaluation. Determination of MPO activity was used as an index of leukocyte accumulation, where one unit of MPO activity was defined as that degrading 1 μmol hydrogen peroxide/min at 25° C. by the formula MPO (U/g)=Vmax/s×60/0.0113/0.5. Data were presented as MPO activity expressed as U/g wet tissue. To determine pulmonary oedema, the left pulmonary lobes were removed, weighed and dried at 60° C. for 48 h for wet to dry weight ratio measurements.

[3] = system: thioglycolate-induced leukocyte migration in the peritoneal cavity, C57BI/6 mice; assay: Thioglycolate-induced peritonitis in the mouse; assay type: in vivo; details: for peritoneal total cell number in untreated mice compared with treated mice: −15 min, 3 h
Protocol: Germ-free male C57BI/6 mice, weighing in the target range of 21.30±0.39 g (6-7 week-old) were anaesthetised with halothane and then received by intravenous route (iv) increasing doses of the phosphotetrahydropyran test compound (5 or 15 mg/kg, −15 min), dexamethasone (1 mg/kg, −60 min) or the respective vehicle (saline 0.9%, pH 7.4). Peritoneal inflammation was induced by i.p. injection of Brewer's thioglycolate. Thioglycolate was prepared freshly (3%, w/v) in sterile saline, and 1.5 mL was injected into the intraperitoneum cavity (ip). Following 3 h treatment, animals were killed (under anesthesia) by cervical dislocation, and cells were recovered by peritoneal lavage using 5 mL of ice-cold PBS. The lavage contents were immediately stored on ice. Peritoneal exudate cells (PEC) were further diluted in 5 mL of ice-cold PBS. The total cell count was determined on a Neubauer chamber with Turk solution, whereas the differential cell counts were conducted on cytospin preparations. Peritoneal lavage was carefully confirmed to be negative for erythrocytes by microscopy to exclude the possibility that leukocyte accumulation in the peritoneal cavity was due to microbleeding, which may occur during animal preparation.
Data are expressed as Mean (±SEM) from n individual animals. Statistical analysis of data was carried out using Software Graphpad prism v4. Comparative data were analysed using ANOVA followed by Dunnett's post test and ANOVA (unpaired Student's T tests). Statistical P values less than 0.05 were taken as significant.
The results of polymorphonuclear (PMN) (A), mononuclear (MN) recruitment (B) and total cells (C) are shown as number of cells per cavity. The results are from a representative experiment with 11 mice. Significant p values for each time point are shown (Dunnett's post test and unpaired T-test).

[4] = Determination of bioavailability in the rat; assay type: in vivo; details: oral, rats, gavage 10 mg/kg versus intravenously 1 mg/kg, plasma LC-MS
Protocol: The phosphotetrahydropyran test compound (Formula 1; n=1 and R=2,4-dimethylphenyl) was administered to rats by gavage at 10 mg/kg or intravenously at 1 mg/kg). Blood samples were taken at 15 and 30 min and at 1, 2, 3, 4, 8, 12 and 24 hours. Plasma samples were prepared by the addition of 50% acetonitrile/water (20 μL). Protein precipitation was carried out by the addition of trichloroacetic acid (20% in water, 40 μL), vortexing (20 s) and after storing at 4° C. for 60 minutes, centrifugation (10,000 rpm) in a microcentrifuge for 5 min. The supernatant was subsequently separated and 25 μL injected directly onto the column for LC-MS analysis.

[5] = system: New Zealand White rabbits, filtering bleb; assay: Rabbit model of experimental glaucoma filtering surgery; assay type: in vivo; details: intraoperative sponge 3 minutes; PXS-25 40 mg/mL, MMC 0.4 mg/mL
Protocol: New Zealand White rabbits (18) were subjected to a modified glaucoma filtering surgery in the left eye. The animals received either intraoperative PXS-25 at a concentration of 40 mg/mL (Group 1), intraoperative Mitomycin C (MMC) at a concentration of 0.4 mg/mL (Group 2), or intraoperative test compound and Mitomycin C (MMC) (Group 3).
Filtration surgery was performed on the left eye only. MMC, test compound (Formula 1) or the combination were delivered with a large sponge measuring 8×10 mm (dry size) cut from a Weck-Cel prior to cutting the flap and sclerostomy. The sponge pieces were placed between the conjunctiva and sclera over the determined filtration site for 3 minutes. The area was then thoroughly irrigated with 30 mL of physiologic saline. The animals were reviewed on the first day after surgery, and then weekly until bleb failure. The study was terminated after the 8 week. Fluorescein tracer studies was performed as follows. Sodium fluorescein was injected into the anterior chamber and the drainage pathway using a slit lamp based digital video camera system was recorded. The animals were sacrificed and tissue sections were prepared for immunohistochemically staining for signs of scarring and inflammation.

Row | Ki [1] [µM] | bioavailability [4] [%] | SMILES | total number of inflammatory cells in BAL fluid versus LPS control group ([2]; 5 mg/kg iv) | total number of inflammatory cells in BAL fluid versus LPS control group ([2]; 15 mg/kg iv) | total number of inflammatory cells in BAL fluid versus LPS control group ([2]; 30 mg/kg iv) | decrease of neutrophils number in BAL fluid compared to vehicle (saline)-control group ([2]; iv pre-treatment 15 min prior to LPS, P<0.05) [%] | peritoneal total cell number in untreated mice compared with treated mice ([3]; 5 mg/kg iv) | peritoneal total cell number in untreated mice compared with treated mice ([3]; 15 mg/kg iv) | anti-inflammatory actions (leukocyte migration into the peritoneal cavity) ([3]; iv pre-treatment, 3 h after thioglycolate) | tissue surrounding the site of surgical intervention / bleb [5]
1 | 7.9 | 7.7 | Cc1ccc(COC2O[C@H](CCP(=O)(O)O)[C@@H](O)[C@H](O)[C@@H]2O)c(C)c1 (some centres unmarked) [Formula 1; n=1 and R=2,4-dimethylphenyl] | not significantly different | significant inhibition | not significantly different | 86.7 | markedly higher | markedly higher | Dose-dependent anti-inflammatory actions | 
2 | 19 |  | O=C[C@@H](O)[C@@H](O)[C@H](O)[C@H](O)COP(=O)(O)O [mannose-6-phosphate, reference compound] |  |  |  |  |  |  |  | 
3 |  |  | CO[C@@]12[C@H](COC(N)=O)C3=C(C(=O)C(C)=C(N)C3=O)N1C[C@@H]1N[C@@H]12 [Mitomycin C] |  |  |  |  |  |  |  | very visible dead tissue surrounding the bleb
